Results reported in PubChem BioAssay (NCI).
“And” between values parts separate entries of the source, which are not always exact repeats. Equal values may be shown once.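 Cultured in 96-well plates, cells were exposed to test compound for 48 hours across five concentrations. Abbreviation: GI50, concentration required for 50% inhibition of growth. Definition used: TGI = concentration required for complete inhibition of growth.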 Where a SMILES comes first, the peptide text is derived from it. [ ]: non-standard residue; d: D form. NMeY = CN[C@@H](Cc1ccc(O)cc1)C(=O)O; dNMeF = CN[C@H](Cc1ccccc1)C(=O)O; Sar = CNCC(=O)O

Assays:
Experiment in all cases: growth of human tumour cells (NCI), 48 h
KM20L2 colon = system: KM20L2 colon
RXF-631 renal = system: RXF-631 renal
MDA-MB-435 = system: MDA-MB-435
MDA-N = system: MDA-N
MDA-MB-231 breast = system: MDA-MB-231 breast
BT-549 breast = system: BT-549 breast
T-47D breast = system: T-47D breast
NCI/ADR-RES ovarian = system: NCI/ADR-RES ovarian
MCF7 breast = system: MCF7 breast

Row | SMILES | TGI (KM20L2 colon) | TGI (RXF-631 renal) | TGI (MDA-MB-435) | TGI (MDA-MB-231 breast) | TGI (BT-549 breast) | TGI (T-47D breast) | TGI (NCI/ADR-RES ovarian) | TGI (MCF7 breast) | also measured
1 | CN(C)CC/C(=N\Nc1ccc(Cl)c(Cl)c1)c1ccccc1 | 3.17 µM | – | – | – | – | – | – | – | –
2 | Cc1ccccc1-c1c(N)nc(N)nc1C(=O)Nc1nccs1 | > 100 µM | > 100 µM | – | – | – | – | – | – | –
3 | Nc1nc(N)c(N=O)c(Nc2ccc(I)cc2)n1 | 80.6 µM | – | – | – | – | – | – | – | –
4 | O=C(O)C[O][Sb][O]CC(=O)O | – | – | > 100 µM | > 100 µM | > 100 µM | > 100 µM | > 100 µM | – | GI50 (MDA-MB-435): > 100 µM; GI50 (MDA-N): > 100 µM; TGI (MDA-N): > 100 µM; GI50 (MDA-MB-231 breast): > 100 µM; GI50 (BT-549 breast): > 100 µM; GI50 (T-47D breast): > 100 µM; GI50 (NCI/ADR-RES ovarian): > 100 µM
5 | CC(C)(C)OC(=O)NC1CCC[C@H]1O (stereo partly specified) | > 100 µM | > 100 µM | – | – | – | – | – | – | –
6 | CC(=O)Nc1ccccc1-c1cnc2ccccc2n1 | > 100 µM | – | – | – | – | – | – | – | –
7 | CC(=O)OC1C/C(C)=C/CCC(C)/C=C/C2(C)CCC(C(C)(C)O)C12 (stereo unspecified) | > 100 µM | – | – | – | – | – | – | – | –
8 | Cc1cccc(NC(=O)CCl)c1 | – | – | > 10 µM | > 10 µM | > 10 µM | > 10 µM | > 10 µM | > 10 µM | TGI (MDA-N): > 10 µM
9 | NC(=S)NNC(=O)CCC(=O)Nc1ccc(Cl)cc1Cl | > 100 µM | > 100 µM | – | – | – | – | – | – | –
10 | O=C1[C@@H]2C3SC(c4ccccc43)[C@@H]2C(=O)N1c1ccccc1 | > 100 µM | – | – | – | – | – | – | – | –
11 | CC(=O)C1C(=O)C(=O)N(c2ccccc2N2C(=O)C(=O)C(C(C)=O)C2=O)C1=O (stereo unspecified) | > 100 µM | > 100 µM | – | – | – | – | – | – | –
12 | NC(CSc1nc2ccccn2c1[N+](=O)[O-])C(=O)O (stereo unspecified) | – | – | > 100 µM | > 100 µM | > 100 µM | > 100 µM | > 100 µM | > 100 µM | TGI (MDA-N): > 100 µM
13 | Nc1ncnc2c(C3OC(CO)C(O)C3O)scc12 (stereo unspecified) | 1.07 µM and 1.64 µM | – | – | – | – | – | – | – | –
14 | CC(=O)OCC1OC(n2c(=O)n(-c3ccccc3)c(=O)c3cc(Br)cc(Br)c32)C(OC(C)=O)C(OC(C)=O)C1OC(C)=O (stereo unspecified) | > 100 µM | > 100 µM | – | – | – | – | – | – | –
15 | CCCCCCCCCC1C(C)c2c([nH]c3ccccc23)C2C(=O)N(c3ccccc3)C(=O)C21 (stereo unspecified) | 24.9 µM | 11.7 µM | – | – | – | – | – | – | –
16 | COc1c(NC(=O)CC(C)=O)[c]([Hg][O]C(C)=O)c(OC)c(Cl)[c]1[Hg][O]C(C)=O | 28.5 µM | 13.7 µM | – | – | – | – | – | – | GI50 (KM20L2 colon): 14.6 µM; GI50 (RXF-631 renal): 3.02 µM

Row | SMILES | TGI (KM20L2 colon) | TGI (RXF-631 renal) | TGI (MDA-MB-435) | TGI (MDA-MB-231 breast) | TGI (BT-549 breast) | TGI (T-47D breast) | TGI (NCI/ADR-RES ovarian) | TGI (MCF7 breast) | also measured
17 | CN(C)CCNC(=O)Cn1ccc(=O)c2ccc([N+](=O)[O-])cc21 | – | – | > 100 µM | – | – | > 100 µM | > 100 µM | > 100 µM | TGI (MDA-N): > 100 µM
18 | COc1cc(C(=O)C/C(CCC(=O)Nc2ccc(Cl)cc2Cl)=N/NC(=O)C(N)=O)ccc1O | > 100 µM | > 100 µM | – | – | – | – | – | – | –
19 | COc1cc2c(c(OC)c1OC)-c1ccc(SC)c(=O)cc1[C@@H](NCc1cccc(C#N)c1)CC2 | 0.0302 µM and < 0.0075 µM | 21.6 µM | – | – | – | – | – | – | GI50 (KM20L2 colon): < 0.0075 µM
20 | NCCCC1NC(=O)/C(=C(O)/C=C/C2CCC[C@@H]2CC2SCCS2)C1=O (stereo partly specified) | > 100 µM | – | – | – | – | – | – | – | –
21 | O=C(O)c1ccc(NCc2nc3cc4ccccc4cc3[nH]2)cc1 | – | – | > 100 µM | > 100 µM | > 100 µM | > 100 µM | > 100 µM | 46.9 µM | TGI (MDA-N): > 100 µM
22 | CCOC(=O)C(Cc1ccccc1)NC(=O)OC(C)(C)C (stereo unspecified) | – | > 100 µM | – | – | – | – | – | – | –
23 | CC[C@H](C)[C@@H]1NC(=O)[C@H](Cc2ccc(O)cc2)N(C)C(=O)[C@H](Cc2ccccc2)NC(=O)CN(C)C(=O)[C@@H]2CCCN2C(=O)[C@@H](Cc2ccccc2)N(C)C(=O)[C@H](CC(C)C)NC1=O (cyclo(F[NMeY]IL[dNMeF]P[Sar])) | – | – | 1.7 µM | 4.28 µM | 4.51 µM | 6.21 µM | > 100 µM | 2.69 µM | GI50 (MDA-MB-435): 0.205 µM; GI50 (MDA-MB-231 breast): 0.331 µM; GI50 (BT-549 breast): 0.407 µM; GI50 (T-47D breast): 0.157 µM; GI50 (MCF7 breast): 0.103 µM; GI50 (NCI/ADR-RES ovarian): 14 µM
24 | Cc1ccc2c(Nc3cccc(Cl)c3F)ncc(NC(=O)c3csc4c(N)ncnc34)c2c1 | – | – | > 100 µM | > 94 µM | > 100 µM | > 100 µM | > 100 µM | > 100 µM | GI50 (MDA-MB-435): 0.326 µM; GI50 (MDA-MB-231 breast): 0.164 µM; GI50 (BT-549 breast): > 100 µM; GI50 (T-47D breast): > 100 µM; GI50 (MCF7 breast): > 100 µM; GI50 (NCI/ADR-RES ovarian): > 100 µM
25 | CNNC(=N\S(=O)(=O)c1cc(C(=O)Nc2ccc(Cl)cc2)c(Cl)cc1SCc1ccccc1)/N=C/c1ccc([N+](=O)[O-])s1 | – | – | > 100 µM | > 100 µM | > 100 µM | > 100 µM | > 100 µM | > 100 µM | GI50 (MDA-MB-435): 23.4 µM; GI50 (MDA-MB-231 breast): 6.2 µM; GI50 (BT-549 breast): > 100 µM; GI50 (T-47D breast): 7.07 µM; GI50 (MCF7 breast): > 100 µM; GI50 (NCI/ADR-RES ovarian): > 100 µM
26 | CCN(CC)CCCOc1cc(O)c2c(=O)cc(-c3ccccc3)oc2c1 | – | – | 24.8 µM | 18.9 µM | 26.6 µM | 33.4 µM | 27.1 µM | 16.2 µM | GI50 (MDA-MB-435): 5.5 µM; GI50 (MDA-MB-231 breast): 6.54 µM; GI50 (BT-549 breast): 13.3 µM; GI50 (T-47D breast): 15.5 µM; GI50 (MCF7 breast): 4.16 µM; GI50 (NCI/ADR-RES ovarian): 13.3 µM
27 | Cc1ncc(C(=O)Nc2ccc(CN3CCN(C)CC3)c(C(F)(F)F)c2)cc1C#Cc1cnc(N)c2ncccc12 | – | – | 1.58 µM | 1.18 µM | 18.9 µM | 27.4 µM | 3.76 µM | 4.36 µM | GI50 (MDA-MB-435): 0.0419 µM; GI50 (MDA-MB-231 breast): 0.0801 µM; GI50 (BT-549 breast): 1.65 µM; GI50 (T-47D breast): 5.36 µM; GI50 (MCF7 breast): 1.61 µM; GI50 (NCI/ADR-RES ovarian): 1.34 µM
28 | O=C(O)CCCCCO | > 100 µM | – | – | – | – | – | – | – | –
29 | COC(=O)c1ccc2c(c1)C(=O)c1c-2n(CCCN)c(=O)c2cc([N+](=O)[O-])ccc12 | – | – | 1.44 µM | 0.96 µM | 1.77 µM | 1.34 µM | 0.682 µM | 0.214 µM | GI50 (MDA-MB-435): 0.105 µM; GI50 (MDA-MB-231 breast): 0.426 µM; GI50 (BT-549 breast): 0.265 µM; GI50 (T-47D breast): < 0.0173 µM; GI50 (MCF7 breast): < 0.01 µM; GI50 (NCI/ADR-RES ovarian): < 0.029 µM
30 | Nc1c(C(=O)c2cccc(CCC3(O)CCCC3)c2)cnn1-c1ccc(F)cc1 | – | – | > 25 µM | > 25 µM | > 25 µM | > 25 µM | > 25 µM | > 25 µM | GI50 (MDA-MB-435): 8.98 µM; GI50 (MDA-MB-231 breast): > 20.9 µM; GI50 (BT-549 breast): 9.75 µM; GI50 (T-47D breast): 6.52 µM; GI50 (MCF7 breast): 9.65 µM; GI50 (NCI/ADR-RES ovarian): 7.68 µM
31 | S=C=NCc1ccccc1 | – | – | 8.33 µM | 5.14 µM | 5.12 µM | 33.3 µM | > 32 µM | 28.6 µM | TGI (MDA-N): 12.4 µM
32 | C[C@]12CCC3c4ccc(O)cc4CCC3C1Cc1ccc(O)cc12 (stereo partly specified) | – | – | 11.1 µM | 22.2 µM | 23.4 µM | 30.9 µM | 6.74 µM | 17.8 µM | GI50 (MDA-MB-435): 2.44 µM; GI50 (MDA-MB-231 breast): 7.44 µM; GI50 (BT-549 breast): 6.57 µM; GI50 (T-47D breast): 13.1 µM; GI50 (MCF7 breast): 4.83 µM; GI50 (NCI/ADR-RES ovarian): 2.35 µM
